The target of test [1] is T1, ifenprodil binding site of NMDA receptors containing NR2B subunits (Rattus norvegicus, UniProt P35439+Q00960).
T1 construct: we used a membrane preparation of rat cerebral hippocampus; from tissue; host or cells: rat hippocampal membranes
Nature of the test: Radioligand binding, competition with [3H]ifenprodil. As to conditions: rat hippocampal membranes.
Description: (§1) Two radioactive ligands were used: [^3H]
(§2) The obtained membrane pellet was resuspended in a work buffer (5 mM HEPES/4.5 mM Tris buffer, pH 7.6) in a ratio of 1:5 and stored in liquid nitrogen. The reaction mixture (the final volume of 0.5 ml) contained 200 μl of the working buffer, 50 μl of 50 nM radioligand solution, and 250 μl of the membrane suspension. Nonspecific binding was determined in the presence of 50 μl of 1 mM of unlabeled ligand.
(§3) For binding study, the reaction mixture was incubated at room temperature for 2 hours. After incubation, the samples were filtered through GF/B glass-fiber filters (Whatman), washed with the work buffer, dried, and transferred to scintillation vials to which 5 ml of scintillation fluid was added containing 4 g of diphenyloxazole (PPO), 0.2 g of diphenyloxazoil benzene (POPOP), and 1 liter of toluene.
(§4) The effect of the test compounds on the binding of [^3H]

Another test deals with T2, tubulin (Sus scrofa, UniProt P02550+P02554).
T2 construct: purchased Cytoskeleton, Inc., Denver, USA
T2 sequence (P02550 whole entry): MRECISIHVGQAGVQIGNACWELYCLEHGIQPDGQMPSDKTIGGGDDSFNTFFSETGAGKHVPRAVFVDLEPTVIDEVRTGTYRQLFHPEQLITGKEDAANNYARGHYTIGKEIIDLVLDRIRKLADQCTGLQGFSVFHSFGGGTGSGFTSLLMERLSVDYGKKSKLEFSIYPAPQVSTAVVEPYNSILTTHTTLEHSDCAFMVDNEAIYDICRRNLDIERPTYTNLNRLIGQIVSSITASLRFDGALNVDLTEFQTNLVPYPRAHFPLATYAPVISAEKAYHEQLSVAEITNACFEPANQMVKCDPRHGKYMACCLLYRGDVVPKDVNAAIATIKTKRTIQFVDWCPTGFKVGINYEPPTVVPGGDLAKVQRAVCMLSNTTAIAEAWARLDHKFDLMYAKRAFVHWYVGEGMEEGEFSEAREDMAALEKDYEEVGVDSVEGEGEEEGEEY
T2 sequence (P02554 whole entry): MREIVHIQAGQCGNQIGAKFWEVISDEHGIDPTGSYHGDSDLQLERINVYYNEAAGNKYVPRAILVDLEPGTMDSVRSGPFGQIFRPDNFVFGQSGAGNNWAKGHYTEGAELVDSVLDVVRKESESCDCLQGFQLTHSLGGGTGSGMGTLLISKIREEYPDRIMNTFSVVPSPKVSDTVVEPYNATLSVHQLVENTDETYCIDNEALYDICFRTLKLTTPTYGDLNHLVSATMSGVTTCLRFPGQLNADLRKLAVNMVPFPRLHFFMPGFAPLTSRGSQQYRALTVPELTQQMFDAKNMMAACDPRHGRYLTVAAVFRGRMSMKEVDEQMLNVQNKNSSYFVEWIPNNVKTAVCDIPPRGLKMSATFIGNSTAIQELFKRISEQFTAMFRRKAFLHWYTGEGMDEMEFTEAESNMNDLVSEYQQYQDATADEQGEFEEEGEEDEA
Nature of the test: Tubulin polymerization to microtubules (absorbance at 355 nm). The class given is biochemical. As to conditions: read-out: (dA355/dt)max, % of control. As to the method:
The primary screening for the effect on tubulin polymerization in vitro was performed using a commercial tubulin in the presence of 0.1 mM of the carbazole–aminoadamantane conjugates. In blank probes, tubulin (40 μM) polymerization in the presence of 10% DMSO (as in the case of test probes) leads to absorbance increase after a rather long (80–120 minutes) lag period. […] The results are summarized in Table 3 as the maximum rate of absorbance increase for a tubulin- microtubules suspension normalized to the blank value.
The assembly of tubulin into microtubules was carried out using pure tubulin from HTS- Tubulin polymerization assay kit (Cytoskeleton, Inc., Denver, USA). […] The standard polymerization reaction contained 100 μl of a 4 mg/ml tubulin solution in 80 mM PIPES (pH 6.9), 0.5 mM EGTA, 2 mM MgCl2, and 1 mM GTP. […] The parameter Vmax = (dA355/dt)^max normalized to control probes (%) was used to compare the action of the compounds. Electron microscopic monitoring was carried out on Carl Zeiss Libra 120 Electron Microscope (Carl Zeiss Meditec AG, Jena, Germany) at 120 kV using negative countstaining.

The next test concerns the target T3, equine serum BChE (Equus caballus, UniProt P81908).
T3 construct: We used human erythrocyte AChE, equine serum BChE, and porcine liver CaE; purchased Sigma-Aldrich (Germany); host or cells: equine serum
Nature of the test: biochemical. As to conditions: for inhibition at 20 µM: read-out: inhibition % at 20 μM, BChE.

The target in test [2] is T4, MK-801 binding (intrachannel) site of NMDA receptor (Rattus norvegicus, UniProt P35439).
T4 construct: we used a membrane preparation of rat cerebral hippocampus; from tissue; host or cells: rat hippocampal membranes
Nature of the test: Radioligand binding, competition with [3H]MK-801. Conditions: rat hippocampal membranes.
Description: as §1, §2, §3, §4

The next test addresses T5, porcine liver CaE (Sus scrofa, UniProt Q29550).
T5 sequence (Q29550 19-566): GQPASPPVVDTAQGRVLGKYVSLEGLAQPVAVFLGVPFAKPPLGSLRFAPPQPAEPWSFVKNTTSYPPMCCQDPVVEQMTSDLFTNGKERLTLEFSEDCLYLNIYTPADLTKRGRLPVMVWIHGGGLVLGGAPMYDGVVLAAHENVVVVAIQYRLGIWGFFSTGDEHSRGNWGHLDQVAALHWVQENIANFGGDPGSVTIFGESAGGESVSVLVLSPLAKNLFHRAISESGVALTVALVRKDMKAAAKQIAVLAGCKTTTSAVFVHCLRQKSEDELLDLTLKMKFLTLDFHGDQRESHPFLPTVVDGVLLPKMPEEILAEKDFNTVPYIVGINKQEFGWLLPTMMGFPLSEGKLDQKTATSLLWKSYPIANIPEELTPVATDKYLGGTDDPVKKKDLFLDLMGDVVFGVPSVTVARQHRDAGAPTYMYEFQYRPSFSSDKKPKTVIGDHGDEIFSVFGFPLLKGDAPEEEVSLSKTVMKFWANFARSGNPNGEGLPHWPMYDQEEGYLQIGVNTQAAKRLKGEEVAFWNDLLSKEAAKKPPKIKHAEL
As to the kind of experiment: In vitro CaE inhibition (4-nitrophenyl acetate hydrolysis). The class given is biochemical. As to conditions: for inhibition at 20 µM: 20 μM of compound. As to the method: Acetylcholinesterase (AChE, EC 3.1.1.7, from human erythrocyte), butyrylcholinesterase (BChE, EC 3.1.1.8, from equine serum), carboxylesterase (CaE, EC 3.1.1.1, from porcine liver), acetylthiocholine iodide (ATCh), butylthiocholine iodide (BTCh), 5,5′-dithiobis-(2-nitrobenzoic acid) (DTNB), and 4-nitrophenol acetate (4-NPA), were purchased from Sigma-Aldrich (Germany).
The activity of CaE was determined spectrophotometrically by the release of 4-nitrophenol at 405 nm[76]. The assay solution consisted of 0.1 M K/Na phosphate buffer (pH 8.0, 25 °C) with the addition of 1 mM 4-nitrophenyl acetate and 0.02 unit/mL of CaE. The assays were carried out with a blank containing all components except CaE.
The test compounds were dissolved in DMSO; the incubation mixture contained 2% of the solvent. […] The test compounds were added to the assay solution and pre-incubated at 25 °C with the enzymes for 10 min followed by the addition of the substrate. A parallel control was made for the assay solution with no inhibitor. […] Each experiment was performed in triplicate. The results were expressed as the mean ± SEM. The reaction rates in the presence and absence of inhibitor were compared, and the percentage of residual enzyme activity due to the presence of test compounds was calculated.

Another test has as its target T6, human erythrocyte AChE (Homo sapiens, UniProt P22303).
T6 construct: We used human erythrocyte AChE, equine serum BChE, and porcine liver CaE; purchased Sigma-Aldrich (Germany); host or cells: human erythrocyte
As to the kind of experiment: biochemical. As to conditions: for inhibition at 20 µM: read-out: inhibition % at 20 μM, AChE.

The test system of test [3] is SH-SY5Y neuroblastoma cells. Nature of the test: Ionomycin-induced toxicity in SH-SY5Y neuroblastoma cells (MTT test). The class given is cell-based, human. As to conditions: 3 μM ionomycin, 24 hours. As to the method: The human neuroblastoma cell line SH-SY5Y was used for all experiments. The cells were cultured in a humidified, 5% (v/v) CO2-controlled environment at 37 °C, and grown in MEM/F12 culture medium supplemented with 15% fetal bovine serum (FBS), 100 U/mL penicillin, and […][90].
The cell viability was evaluated as the dehydrogenase activity with the 3-(4,5-dimethylthiazol-2-yl)-2,5-diphenyltetrazolium bromide (MTT) assay. Briefly, the SH-SY5Y cells were incubated with 0.1 and 1 μM of a test compound or an equal volume of the vehicle (<1% of the whole volume of the medium under the layer of cells) and 3 μM ionomycine for 24 h. The absorbance was measured at 570 nm using a Victor microplate reader (Perkin Elmer).
On the technique in general: Formazan colour is commonly taken as a measure of viable cells.

[4] abbreviates: equine serum BChE, pH 7.5, 25 °C, 10 min pre-incubation, read-out: IC50 ± SEM, BChE.

From publication PMC5372361 (Scientific Reports, 2017) come the findings set out here.

The term inhibition denotes the percentage by which the read-out fell short of the control. Usually IC50 stands for the point on the concentration scale where inhibition reaches its midpoint.

Where two headings read alike, the source gives them in different places.

T6 sequence (P22303 32-617 isoform P22303-2 limits assumed): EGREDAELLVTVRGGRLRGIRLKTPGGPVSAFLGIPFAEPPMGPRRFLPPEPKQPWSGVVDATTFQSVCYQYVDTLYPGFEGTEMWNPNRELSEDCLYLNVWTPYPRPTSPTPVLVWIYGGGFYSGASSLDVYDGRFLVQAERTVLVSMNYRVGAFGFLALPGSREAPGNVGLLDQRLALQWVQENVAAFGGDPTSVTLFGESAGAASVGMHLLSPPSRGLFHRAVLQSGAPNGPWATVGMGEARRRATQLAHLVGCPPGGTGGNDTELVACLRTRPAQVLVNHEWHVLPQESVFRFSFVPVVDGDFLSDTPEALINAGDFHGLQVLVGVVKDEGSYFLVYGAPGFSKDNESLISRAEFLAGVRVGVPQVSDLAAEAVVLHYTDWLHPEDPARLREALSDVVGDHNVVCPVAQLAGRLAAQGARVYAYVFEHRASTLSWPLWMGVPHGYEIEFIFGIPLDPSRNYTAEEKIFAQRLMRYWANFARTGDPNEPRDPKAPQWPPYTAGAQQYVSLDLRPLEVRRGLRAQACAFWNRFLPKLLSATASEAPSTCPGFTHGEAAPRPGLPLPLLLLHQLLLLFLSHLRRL
T3 sequence (P81908 whole entry): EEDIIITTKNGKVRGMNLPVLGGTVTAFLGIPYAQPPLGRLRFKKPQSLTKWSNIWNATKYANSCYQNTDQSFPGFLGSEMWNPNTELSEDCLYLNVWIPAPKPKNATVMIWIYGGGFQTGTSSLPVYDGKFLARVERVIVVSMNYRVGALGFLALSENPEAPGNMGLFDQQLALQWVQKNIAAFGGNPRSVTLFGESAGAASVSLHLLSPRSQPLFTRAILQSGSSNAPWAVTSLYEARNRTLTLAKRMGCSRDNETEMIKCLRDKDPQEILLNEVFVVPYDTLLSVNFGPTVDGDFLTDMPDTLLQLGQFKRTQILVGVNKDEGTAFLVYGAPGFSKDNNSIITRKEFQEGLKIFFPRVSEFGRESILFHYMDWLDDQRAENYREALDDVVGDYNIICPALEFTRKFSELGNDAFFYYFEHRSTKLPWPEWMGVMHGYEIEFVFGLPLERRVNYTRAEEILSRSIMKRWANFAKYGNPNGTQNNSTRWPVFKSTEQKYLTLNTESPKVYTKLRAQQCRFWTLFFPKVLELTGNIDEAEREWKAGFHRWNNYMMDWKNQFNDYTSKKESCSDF
T1 sequence (Q00960 27-1482, other chains not shown): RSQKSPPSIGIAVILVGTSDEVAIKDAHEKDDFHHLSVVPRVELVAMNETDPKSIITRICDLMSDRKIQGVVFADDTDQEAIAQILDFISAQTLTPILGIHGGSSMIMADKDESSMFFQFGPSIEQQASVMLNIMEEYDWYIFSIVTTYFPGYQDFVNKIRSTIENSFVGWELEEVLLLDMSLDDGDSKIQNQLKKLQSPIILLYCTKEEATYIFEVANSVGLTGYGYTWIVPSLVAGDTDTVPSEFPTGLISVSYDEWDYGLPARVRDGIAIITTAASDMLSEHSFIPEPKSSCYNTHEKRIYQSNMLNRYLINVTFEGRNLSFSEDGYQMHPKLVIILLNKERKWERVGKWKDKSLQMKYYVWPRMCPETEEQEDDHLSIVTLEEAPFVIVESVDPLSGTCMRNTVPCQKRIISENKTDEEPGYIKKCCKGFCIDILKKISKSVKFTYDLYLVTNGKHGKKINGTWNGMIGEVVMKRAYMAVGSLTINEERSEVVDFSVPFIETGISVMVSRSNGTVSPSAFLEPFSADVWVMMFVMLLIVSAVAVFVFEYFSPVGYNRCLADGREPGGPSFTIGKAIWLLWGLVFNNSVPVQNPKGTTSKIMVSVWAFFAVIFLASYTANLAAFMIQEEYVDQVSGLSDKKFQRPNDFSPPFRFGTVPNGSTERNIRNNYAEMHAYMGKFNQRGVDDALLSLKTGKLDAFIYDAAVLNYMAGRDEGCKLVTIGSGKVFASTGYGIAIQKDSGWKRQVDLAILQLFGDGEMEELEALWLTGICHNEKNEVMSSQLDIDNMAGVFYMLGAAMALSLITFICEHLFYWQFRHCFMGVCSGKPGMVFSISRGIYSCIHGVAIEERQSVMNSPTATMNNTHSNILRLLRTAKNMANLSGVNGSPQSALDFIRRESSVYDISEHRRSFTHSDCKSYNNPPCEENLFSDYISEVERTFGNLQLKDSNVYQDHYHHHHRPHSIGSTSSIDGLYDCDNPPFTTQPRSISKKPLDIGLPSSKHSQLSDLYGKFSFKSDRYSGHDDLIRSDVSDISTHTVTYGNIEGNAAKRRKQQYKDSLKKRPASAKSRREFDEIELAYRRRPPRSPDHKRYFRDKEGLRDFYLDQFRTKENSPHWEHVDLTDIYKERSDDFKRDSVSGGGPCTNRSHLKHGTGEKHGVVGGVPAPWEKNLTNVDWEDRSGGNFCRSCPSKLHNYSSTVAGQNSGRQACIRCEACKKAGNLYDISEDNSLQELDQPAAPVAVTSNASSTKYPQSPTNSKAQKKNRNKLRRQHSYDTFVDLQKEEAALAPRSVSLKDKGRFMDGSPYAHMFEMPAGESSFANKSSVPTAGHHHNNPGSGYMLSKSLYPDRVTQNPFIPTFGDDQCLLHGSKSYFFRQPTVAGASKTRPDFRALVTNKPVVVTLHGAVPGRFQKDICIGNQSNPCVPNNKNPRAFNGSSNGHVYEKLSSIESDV
Description for equine serum BChE: (§5) The AChE and BChE activities were measured by the method of Ellman and co-workers as described earlier[75]. The assay solution consisted of 0.1 M K/Na phosphate buffer (pH 7.5, 25 °C) with the addition of 0.33 mM DTNB, 0.02 unit/mL of AChE or BChE, and 1 mM of substrate (ATCh or BTCh, respectively). The assays were carried out with a blank containing all components except ATCh and BTCh in order to take account of a non-enzymatic reaction.
(§6) The test compounds were dissolved in DMSO; the incubation mixture contained 2% of the solvent. […] The test compounds were added to the assay solution and pre-incubated at 25 °C with the enzymes for 10 min followed by the addition of the substrate. A parallel control was made for the assay solution with no inhibitor. Measurements were performed in a FLUOStar OPTIMA multifunctional reader (BMG Labtech, Germany). Each experiment was performed in triplicate. The results were expressed as the mean ± SEM. The reaction rates in the presence and absence of inhibitor were compared, and the percentage of residual enzyme activity due to the presence of test compounds was calculated.
Description for human erythrocyte AChE: as §5, §6

Consider `NC12CC3CC(CC(C3)C1)C2` [Amantadine], for which the “% of [3H]ifenprodil blockade at 100 μM of compound” value in test [1] is 44.6 ± 4.6%. Also, at tubulin (at 100 μM of compound, 100% = vehicle control (10% DMSO)), the remaining activity at 100 µM is 98 ± 16%. In addition, the results for the inhibition at 20 µM at equine serum BChE (20 μM of compound) and at porcine liver CaE were 6.9% and 3.2%, respectively. The IC50 on equine serum BChE (setting [4]) is above 20 µM. In test [2], the “% of [3H]МК-801 blockade at 100 μM of compound” value came out at 57.2 ± 5.5%.
For `O=[N+]([O-])c1ccc(OP(=O)(O)Oc2ccc([N+](=O)[O-])cc2)cc1` [BNPP, Bis-4-nitrophenyl phosphate], the IC50 on porcine liver CaE (porcine liver CaE, pH 8.0, 25 °C, read-out: IC50 ± SEM, CaE) worked out at 1.8 ± 0.11 µM.
Take `c1ccc2c(c1)[nH]c1ccccc12` [Carbazole]: the 50% inhibitory concentration (IC50) against human erythrocyte AChE and at equine serum BChE was above 20 µM in each case. In addition, the inhibition at 20 µM on human erythrocyte AChE was 1.8%; at equine serum BChE, 16.1%; against porcine liver CaE it was 9.4%. Moreover, the maximum polymerization rate, % of control at 100 µM at tubulin is 123 ± 12%.
For `CC12CC3CC(C)(C1)CC(N)(C3)C2.Cl` [Memantine, 1-amino-3,5-dimethyladamantane hydrochloride], the “% of [3H]ifenprodil blockade at 100 μM of compound” value in test [1] was determined as 11.2 ± 1.1%. For the same molecule, the IC50 on human erythrocyte AChE (read-out: IC50 ± SEM, AChE) is above 20 µM; at equine serum BChE (setting [4]), above 20 µM. For the same molecule, the inhibition at 20 µM at human erythrocyte AChE is 1.3%; at equine serum BChE it was 13.7%; against porcine liver CaE, 3%. Besides, at tubulin, the maximum polymerization rate, % of control at 100 µM amounted to 89 ± 7%. The “% of [3H]МК-801 blockade at 100 μM of compound” value in test [2] came out at 100%.
Turning to `CC(=O)O[C@H]1C(=O)[C@@]2(C)[C@H]([C@H](OC(=O)c3ccccc3)[C@]3(O)C[C@H](OC(=O)[C@H](O)[C@@H](NC(=O)c4ccccc4)c4ccccc4)C(C)=C1C3(C)C)[C@]1(OC(C)=O)CO[C@@H]1C[C@@H]2O` [Paclitaxel], the remaining activity at 5 µM at tubulin (5 μM, 100% = vehicle control (10% DMSO)) is 487 ± 32%.
As to `C[C@H](CCC(=O)O)C[C@H](C)C[C@H](C)C(=O)/C=C(\O)[C@H](C)C[C@H](C)C/C=C/[C@@H](C)[C@@H](O)[C@@H](C)[C@@H](O)C[C@@H]1CC[C@@](C)([C@H]2CC[C@@](C)([C@@H](C)O)O2)O1` [ionomycin], the “reduction of neuroblastoma cell survival” value in test [3] is given as 36 ± 4%.
